Data reported in article PMC11274883, “Anticancer Effect of Pt^[sequence], Pt^II5MESS, Pt^II56MESS and Their Platinum(IV)-Dihydroxy Derivatives against Triple-Negative Breast Cancer and Cisplatin-Resistant Colorectal Cancer” (Cancers, 2024).

Experiments:
Type in all cases: cell-based
HT29 cells [1] = assay: DCFDA cellular ROS detection assay; conditions: complexes at IC50, TBHP 20 µM
How it was run: (§1)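 Cells seeded at 2500 cells/well overnight, then loaded with 25 µM DCFH-DA for 45 min. DCF fluorescence (ex/em 485/535 nm, RFU) read at multiple time points; 20 µM TBHP served as positive control. Three independent experiments in triplicate.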

MDA−MB−231 cells [2] = assay: DCFDA cellular ROS detection assay; conditions: complexes at IC50, TBHP 20 µM
How it was run: as §1

MCF10A = assay: WST-1 cytotoxicity, 72 h; conditions: mean ± SEM
Description: Cells were seeded in 96-well flat-bottom culture plates at a concentration of 1000 cells per well. […] After 72 h, the medium was removed and replaced with new medium. The cell viability reagent WST-1 (10 µL, Roche Diagnostics, Indianapolis, IN, USA) was added to each well. After an hour, the absorbance was measured at 450 nm using a versatile microplate reader (Bio-strategy, Campbellfield, VIC, Australia). Three separate experiments were performed, each with n = 3 replicates. GraphPad prism 10 was used to calculate apparent IC50 values using the nonlinear regression model Y = Bottom + (Top-Bottom)/(1 + 10^(X-LogIC50)) where Top and bottom are plateaus in the y-axis (% survival). The R^2 value of the curve fits ranged from 0.8972 to 0.9794.

HT29 cells [3] = assay: Cellular uptake of Pt by ICP-MS; conditions: for Intracellular Concentration: HT29, 3 µM; for Intracellular/extracellular ratio: HT29, extracellular 3 µM
Description: (§2) A final concentration of 10^6 cells/well of MDA−MB−231 and HT29 cells were seeded in 6-well plates and incubated overnight to adhere. The cells were then treated with a final concentration of 3 µM of either Pt^II or Pt^IV complexes. After 0, 0.5, 1, 3, 6, 12, 24 or 30 h, the medium was removed, and the cells were washed three times with cold PBS and allowed to dry. Then, 400 µL of 69% HNO3 (Baseline grade nitric acid with PPB level reported impurities, Seastar Chemicals, Sidney, BC, Canada) was added to each well for 90 min to ensure complete digestion. […] Iridium 193 (^193Ir) was mixed online and introduced into the ICP-MS to check uptake efficiency and matrix interference. All ICP-MS parameters are described in Table S2 and elaborated in Method S3. The results represent an average of three different experiments run in triplicate (±SEM) and expressed as nmol/10^6 cells or µM/cell. Quantification of the cellular uptake of Pt was based on external standards (Certified Standard from Sigma-Aldrich, VIC, Australia) containing Internal standard Ir.
(§3) Method S3. Cellular Uptake of Platinum(II) and (IV) complexes
(§4) A final concentration of 10^6 cells/well of MDA−MB−231 and HT29 cells were seeded in 6-well plates and incubated overnight to adhere. The cells were then treated with a final concentration of 3 µM of either PtII or PtIV complexes. After 0, 0.5, 1, 3, 6, 12, 24 or 30 h, the medium was removed, and the cells were washed three times with cold PBS and allowed to dry. Then, 400 µL of 69% HNO3 (Baseline grade nitric acid with Instrument Quality Grade Nitric acid with ppb level reported impurities, Seastar Chemicals, Sidney, Canada) was added to each well for 90 mins to ensure complete digestion. The digests were then moved to trace -metal free 15 mL centrifuge tubes […]
(§5) concentration of 3.5-4%. Iridium 193 (193Ir), selected as internal standard, has similar first ionisation potential and mass to Platinum 195 (195Pt). A concentration of 50 ppb 193Ir in 2% HNO3 solution was chosen for the Perkin Elmer NexION® Inductively Coupled Plasma Mass Spectrometer (ICP-MS) as it produced a steady state signal intensity of 600-800K counts per second. Mixing and injection of sample and internal standard solution was carried out using an ESI 7 port Valve system (Elemental Scientific, USA). A high-quality Solvent Flex 2 stop pump with 0.38 mm ID tubing was used in conjunction with the ICP-MS’s Peristaltic pump set at 20 […]
(§6) standard both, at 0.25 mL/min) being 0.5 mL/min. The ICP-MS was tuned to high sensitivity settings to facilitate detection of low Pt concentrations in samples. This was done by adjusting the nebuliser gas flow between […] to achieve maximum Indium 115 intensity whilst maintaining an acceptable average oxide and doubly charged ratio of 1.64-2.24% and 1.17-1.69% respectively. The analysis method was set to peak hopping mode with a dwell time of […] and 45 sweeps through the mass spectrum per sample read. […]
(§7) peak integration time of 4500 milliseconds and enabled the collection of numerous data points for peak integration thereby increasing accuracy. The ICP-MS was tuned daily, and its performance optimised to a set of suppliers recommended settings. Analysis was only carried out when optimal oxide and doubly charged ratios with high ionic sensitivity was achieved. All ICP-MS parameters are described in Table S2. The results represent an average of three different experiments run in triplicates (± SEM) and expressed as nmol/106 cells or µM/cell. Quantification of the cellular uptake of Pt was based on external standards (Certified Standard from Sigma-Aldrich NSW, Australia) containing Internal standard Ir. […]

MDA−MB−231 cells [4] = assay: Cellular uptake of Pt by ICP-MS; conditions: for Intracellular Concentration: MDA−MB−231, 3 µM; for Intracellular/extracellular ratio: MDA−MB−231, extracellular 3 µM
Description: as §2, §3, §4, §5, §6, §7

Row | Compound | ROS production (HT29 cells [1]; HT29, 24 h) | ROS production (HT29 cells [1]; HT29, 48 h) | ROS production (HT29 cells [1]; HT29, 72 h) | ROS production (MDA−MB−231 cells [2]; MDA−MB−231, 24 h) | ROS production (MDA−MB−231 cells [2]; MDA−MB−231, 48 h) | ROS production (MDA−MB−231 cells [2]; MDA−MB−231, 72 h) | IC50 (MCF10A) | Intracellular Concentration (HT29 cells [3]; 0 h) | Intracellular Concentration (HT29 cells [3]; 0.5 h) | Intracellular Concentration (HT29 cells [3]; 1 h) | Intracellular Concentration (HT29 cells [3]; 3 h) | Intracellular Concentration (HT29 cells [3]; 6 h) | Intracellular Concentration (HT29 cells [3]; 12 h) | Intracellular Concentration (HT29 cells [3]; 24 h) | Intracellular Concentration (HT29 cells [3]; 30 h) | Intracellular/extracellular ratio (HT29 cells [3]; 0 h) | Intracellular/extracellular ratio (HT29 cells [3]; 0.5 h) | Intracellular/extracellular ratio (HT29 cells [3]; 1 h) | Intracellular/extracellular ratio (HT29 cells [3]; 3 h) | Intracellular/extracellular ratio (HT29 cells [3]; 6 h) | further results
1 | Cc1c(C)c2cccnc2c2ncccc12.N[C@H]1CCCC[C@@H]1N.O=[N+]([O-])[O-].O=[N+]([O-])[O-].[OH][Pt+2][OH] [Pt^IV56MESS(OH)2, [Pt(5,6-dimethyl-1,10-phenanthroline)(1S,2S-diaminocyclohexane)(dihydroxy)](NO3)2] | 244 RFU | 318.56 RFU | 368.11 RFU | 292.21 RFU | 360.12 RFU | 386.28 RFU | 4.91 ± 1.45 µM | 0.14 nmol/10^6 cells | 0.18 nmol/10^6 cells | 0.28 nmol/10^6 cells | 0.42 nmol/10^6 cells | 1.74 nmol/10^6 cells | 5.43 nmol/10^6 cells | 9.14 nmol/10^6 cells | 9.98 nmol/10^6 cells | 21.81 | 28.52 | 43.51 | 66.77 | 273.54 | Intracellular/extracellular ratio (HT29 cells [3]; 12 h): 854.01; Intracellular/extracellular ratio (HT29 cells [3]; 24 h): 1435.74; Intracellular/extracellular ratio (HT29 cells [3]; 30 h): 1568.28; Intracellular Concentration (MDA−MB−231 cells [4]; 0 h): 0.14 nmol/10^6 cells; Intracellular Concentration (MDA−MB−231 cells [4]; 0.5 h): 0.11 nmol/10^6 cells; Intracellular Concentration (MDA−MB−231 cells [4]; 1 h): 0.05 nmol/10^6 cells; Intracellular Concentration (MDA−MB−231 cells [4]; 3 h): 0.25 nmol/10^6 cells; Intracellular Concentration (MDA−MB−231 cells [4]; 6 h): 0.30 nmol/10^6 cells; Intracellular Concentration (MDA−MB−231 cells [4]; 12 h): 1.16 nmol/10^6 cells; Intracellular Concentration (MDA−MB−231 cells [4]; 24 h): 2.74 nmol/10^6 cells; Intracellular Concentration (MDA−MB−231 cells [4]; 30 h): 4.19 nmol/10^6 cells; Intracellular/extracellular ratio (MDA−MB−231 cells [4]; 0.5 h): 50.71; Intracellular/extracellular ratio (MDA−MB−231 cells [4]; 1 h): 26.14; Intracellular/extracellular ratio (MDA−MB−231 cells [4]; 3 h): 117.57; Intracellular/extracellular ratio (MDA−MB−231 cells [4]; 6 h): 142.93; Intracellular/extracellular ratio (MDA−MB−231 cells [4]; 12 h): 548.82; Intracellular/extracellular ratio (MDA−MB−231 cells [4]; 24 h): 1293.81
2 | N[C@H]1CCCC[C@@H]1N.O=[N+]([O-])[O-].O=[N+]([O-])[O-].[OH-].[OH-].[Pt+4].c1cnc2c(c1)ccc1cccnc12 [[Pt(1,10-phenanthroline)(1S,2S-diaminocyclohexane)(dihydroxy)](NO3)2] | 182.77 RFU | 217.33 RFU | 242.44 RFU | 196.62 RFU | 256.83 RFU | 275.09 RFU | 20.5 ± 1.32 µM | 0.10 nmol/10^6 cells | 0.10 nmol/10^6 cells | 0.18 nmol/10^6 cells | 0.33 nmol/10^6 cells | 0.77 nmol/10^6 cells | 3.64 nmol/10^6 cells | 5.18 nmol/10^6 cells | 5.79 nmol/10^6 cells | 16.45 | 15.93 | 28.08 | 51.34 | 121.19 | Intracellular/extracellular ratio (HT29 cells [3]; 12 h): 571.26; Intracellular/extracellular ratio (HT29 cells [3]; 24 h): 813.09; Intracellular/extracellular ratio (HT29 cells [3]; 30 h): 909.81; Intracellular Concentration (MDA−MB−231 cells [4]; 0 h): 0.13 nmol/10^6 cells; Intracellular Concentration (MDA−MB−231 cells [4]; 0.5 h): 0.13 nmol/10^6 cells; Intracellular Concentration (MDA−MB−231 cells [4]; 1 h): 0.223 nmol/10^6 cells; Intracellular Concentration (MDA−MB−231 cells [4]; 3 h): 0.16 nmol/10^6 cells; Intracellular Concentration (MDA−MB−231 cells [4]; 6 h): 0.25 nmol/10^6 cells; Intracellular Concentration (MDA−MB−231 cells [4]; 12 h): 0.63 nmol/10^6 cells; Intracellular Concentration (MDA−MB−231 cells [4]; 24 h): 0.78 nmol/10^6 cells; Intracellular Concentration (MDA−MB−231 cells [4]; 30 h): 1.29 nmol/10^6 cells; Intracellular/extracellular ratio (MDA−MB−231 cells [4]; 0 h): 21.21; Intracellular/extracellular ratio (MDA−MB−231 cells [4]; 0.5 h): 20.07; Intracellular/extracellular ratio (MDA−MB−231 cells [4]; 1 h): 35.47; Intracellular/extracellular ratio (MDA−MB−231 cells [4]; 3 h): 26.14; Intracellular/extracellular ratio (MDA−MB−231 cells [4]; 6 h): 38.82; Intracellular/extracellular ratio (MDA−MB−231 cells [4]; 12 h): 98.56; Intracellular/extracellular ratio (MDA−MB−231 cells [4]; 24 h): 123.87; Intracellular/extracellular ratio (MDA−MB−231 cells [4]; 30 h): 203.38
